This experiment deals with HCV (1b) RNA replication (replicon I389Luc-ubi-neo/NS3-3′/5.1). Kind of experiment: Cell-based luciferase reporter HCV (1b) RNA replication assay, Huh-ET cells. The conditions noted are these: Hepatitis C virus, HCV genotype 1b replicon. From the text: Cell-Based Luciferase Reporter HCV (Ib) RNA Replication Assay Cell Culture
Replicon cell lines Huh-5.2 are derived from the Huh-7 hepatocarcinoma cell line are maintained in culture as generally described in Krieger, N; Lohmann, V; Bartenschlager, R. Enhancement of hepatitis C virus RNA replication by cell culture-adaptive mutations. J. Virol. 2001, 75, 4614-4624. The Huh-5.2 cells contain the highly cell culture-adapted replicon I389Luc-ubi-neo/NS3-3′/5.1 construct that carries, in addition to the neomycin gene, an integrated copy to the firefly luciferase gene (Krieger, N; Lohmann, V; Bartenschlager, R. Enhancement of hepatitis C virus RNA replication by cell culture-adaptive mutations. J. Virol. 2001, 75, 4614-4624). This cell line allows measurement of HCV RNA replication and translation by measuring luciferase activity. It has been previously shown that the luciferase activity tightly follows the replicon RNA level in these cells (Krieger, N; Lohmann, V; Bartenschlager, R. Enhancement of hepatitis C virus RNA replication by cell culture-adaptive mutations. J. Virol. 2001, 75, 4614-4624). The Huh-ET cell line has the same features as those mentioned for Huh-5.2 cell line, except that ET cells are more robust and contain an adaptative mutation in the HCV NS4B gene instead of NSSA. Both cell lines are maintained in cultures at a sub-confluent level (<85%) as the level of replicon RNA is highest in actively proliferating cells. The culture media used for cell passaging consist of DMEM (Gibco BRL Laboratories, Mississauga, ON, Canada) supplemented with 10% foetal bovine serum with 1% penicilin/streptomycin, 1% glutamine, 1% sodium pyruvate, 1% non-essential amino acids, and 180 μg/ml of G418 final concentration. Cells are incubated at 37° C., in an atmosphere of 5% CO2 and passaged twice a week to maintain sub-confluence.
Approximately 3000 viable Huh-ET cells (100 μl) are plated per well in a white opaque 96-well microtiter plate. The cell culture media used for the assay is the same as described above except that it contains no G418 and no phenol red. After an incubation period of 3-4 hours at 37° C. in a 5% CO2 incubator, compounds (100 μl) are added at various concentrations. Cells are then further incubated for 4 days at 37° C. in a 5% CO2 incubator. Thereafter, the culture media is removed and cells are lysed by the addition of 95 μL of the luciferase buffer (luciferin substrate in buffered detergent). Cell lysates are incubated at room temperature and protected from direct light for at least 10 minutes. Plates are read for luciferase counts using a luminometer (Wallac MicroBeta Trilux, Perkin Elmer™, MA, USA).
Curves are fitted to data points using nonlinear regression analysis, and IC50s are interpolated from the resulting curve using GraphPad Prism software, version 2.0 (GraphPad Software Inc., San Diego, Calif., USA).
Background: A reporter such as luciferase makes a cellular process visible.

Consider `COC(=O)N[C@H](C(=O)N1C[C@@H](C)C[C@H]1c1ncc(-c2ccc(-c3ccc(-c4cc5[nH]c([C@@H]6C[C@H](C)CN6C(=O)[C@@H](NC(=O)OC)C(C)C)nc5s4)cc3)c(F)c2)[nH]1)C(C)C` [Compound 9a], for which the EC50 (commonly the concentration needed to bring the measured effect to its halfway point) (Table 2B) is no more than 5 nM.

`COC(=O)N[C@H](C(=O)N1C[C@@H](C)C[C@H]1c1ncc(-c2ccc(-c3ccc(-c4cc5[nH]c([C@@H]6C[C@H](C)CN6C(=O)[C@@H](NC(=O)OC)C(C)C)nc5s4)cc3)cc2F)[nH]1)C(C)C` [Compound 10a] returned an EC50 (Table 2B) of no more than 5 nM. With `COC(=O)N[C@H](C(=O)N1C[C@@H](C)C[C@H]1c1nc(-c2csc3ccc(-c4ccc(-c5cc6nc([C@@H]7C[C@H](C)CN7C(=O)[C@@H](NC(=O)OC)C(C)C)[nH]c6s5)cc4)cc23)c[nH]1)C(C)C` [Compound 23], the EC50 (Table 2A) was 5 to 5000 nM. For the setting “Table 2A”, `COC(=O)N[C@H](C(=O)N1C[C@@H](C)C[C@H]1c1ncc(C#Cc2ccc(-c3cc4[nH]c([C@@H]5C[C@H](C)CN5C(=O)[C@@H](NC(=O)OC)C(C)C)nc4s3)s2)[nH]1)C(C)C` [Compound 31] gave an EC50 of no more than 5 nM.

On to `COC(=O)N[C@H](C(=O)N1C[C@@H](C)C[C@H]1c1nc2sc(-c3ccc(-c4ccc(-c5cc6[nH]c([C@@H]7C[C@H](C)CN7C(=O)[C@@H](NC(=O)OC)C(C)C)nc6s5)s4)cc3)cc2[nH]1)C(C)C` [Compound 30], for which the 50% effective concentration (EC50) (Table 2A) was no more than 5 nM. Take `COC(=O)N[C@H](C(=O)N1C[C@@H](C)C[C@H]1c1nc2cc(-c3ccc(-c4cc5[nH]c([C@@H]6C[C@H](C)CN6C(=O)[C@@H](NC(=O)OC)C(C)C)nc5s4)cc3)ccc2[nH]1)C(C)C` [Compound 13]: under “Table 2A”, the EC50 was no more than 5 nM.

The molecule `COC(=O)N[C@H](C(=O)N1C[C@@H](C)C[C@H]1c1nc2cc(-c3ccc(-c4ccc(-c5cc6nc([C@@H]7C[C@H](C)CN7C(=O)[C@@H](NC(=O)OC)C(C)C)[nH]c6s5)cc4)cc3)sc2[nH]1)C(C)C` [Compound 24] yielded a concentration for a half-maximal effect (EC50) (Table 2A) of no more than 5 nM. On the same count and under the same terms, the same measure for `COC(=O)N[C@H](C(=O)N1C[C@@H](C)C[C@H]1c1nc(C)c(-c2ccc(-c3ccc(-c4cc5nc([C@@H]6C[C@H](C)CN6C(=O)[C@@H](NC(=O)OC)C(C)C)[nH]c5s4)cc3)cc2)[nH]1)C(C)C` [Compound 28]: no more than 5 nM.

`COC(=O)N[C@H](C(=O)N1C[C@@H](C)C[C@@H]1c1nc2cc(-c3ccc(-c4ccc(-c5c[nH]c([C@@H]6C[C@H](C)CN6C(=O)[C@@H](NC(=O)OC)C(C)C)n5)cc4)cc3C)sc2[nH]1)C(C)C` [Compound 5a]: the EC50 (Table 2B) is no more than 5 nM. The same measure, in the same setting: the same measure for `COC(=O)N[C@H](C(=O)N1C[C@@H](C)C[C@H]1c1nc(-c2ccc(-c3ccc(-c4cc5[nH]c([C@@H]6C[C@H](C)CN6C(=O)[C@@H](NC(=O)OC)C(C)C)nc5s4)c(F)c3)cc2)c[nH]1)C(C)C` [Compound 7a]: no more than 5 nM; for `C[C@H]1C[C@@H](c2ncc(-c3ccc(-c4ccc(-c5cc6[nH]c([C@@H]7C[C@H](C)CN7C(=O)OC(C)(C)C)nc6s5)cc4)c(F)c3)[nH]2)N(C(=O)OC(C)(C)C)C1` [Compound 4a]: no more than 5 nM. The molecule `COC(=O)N[C@H](C(=O)N1C[C@@H](C)C[C@H]1c1ncc(-c2ccc(-c3ccc(-c4cc5[nH]c([C@@H]6C[C@H](C)CN6C(=O)[C@@H](NC(=O)OC)C(C)C)nc5s4)s3)cc2)[nH]1)C(C)C` [Compound 22] came in with an EC50 (Table 2A) of no more than 5 nM. As for `COC(=O)N[C@H](C(=O)N1C[C@@H](C)C[C@H]1c1nc2sc(C#CC#Cc3cc4[nH]c([C@@H]5C[C@H](C)CN5C(=O)[C@@H](NC(=O)OC)C(C)C)nc4s3)cc2[nH]1)C(C)C` [Compound 4, dimethyl (2S,2′S)-1,1′-((3S,3′S,5S,5′S)-5,5′-(5,5′-(buta-1,3-diyne-1,4-diyl)bis(1H-thieno[2,3-d]imidazole-5,2-diyl))bis(3-methylpyrrolidine-5,1-diyl))bis(3-methyl-1-oxobutane-2,1-diyl)dicarbamate], the EC50 (Table 2A) is no more than 5 nM. `COC(=O)N[C@H](C(=O)N1C[C@@H](C)C[C@H]1c1nc2cc(/C=C/c3ccc(-c4cc5[nH]c([C@@H]6C[C@H](C)CN6C(=O)[C@@H](NC(=O)OC)C(C)C)nc5s4)cc3)ccc2[nH]1)C(C)C` [Compound 17] registered an EC50 (Table 2A) of no more than 5 nM. With `COC(=O)N[C@H](C(=O)N1C[C@@H](C)C[C@H]1c1nc2cc(C#Cc3cc4[nH]c([C@@H]5C[C@H](C)CN5C(=O)[C@@H](NC(=O)OC)C(C)C)nc4s3)ccc2[nH]1)C(C)C` [Compound 3], where the note is “Table 2A”, the EC50 is no more than 5 nM. Still for that read-out and setting: the same measure for `COC(=O)N[C@H](C(=O)N1C[C@@H](C)C[C@H]1c1nc2sc(-c3ccc(-c4ccc5nc([C@@H]6C[C@H](C)CN6C(=O)[C@@H](NC(=O)OC)C(C)C)n(C)c5c4)cc3)cc2[nH]1)C(C)C` [Compound 9]: no more than 5 nM; for `COC(=O)N[C@H](C(=O)N1C[C@@H](C)C[C@H]1c1nc2sc(-c3ccc(-c4ccc5[nH]c([C@@H]6CC[C@H](C)N6C(=O)[C@@H](NC(=O)OC)C(C)C)nc5c4)cc3)cc2[nH]1)C(C)C` [Compound 7]: no more than 5 nM. With `COC(=O)N[C@H](C(=O)N1C[C@@H](C)C[C@H]1c1nc(Cl)c(-c2ccc(-c3ccc(-c4cc5nc([C@@H]6C[C@H](C)CN6C(=O)[C@@H](NC(=O)OC)C(C)C)[nH]c5s4)cc3)cc2)[nH]1)C(C)C` [Compound 1a], the EC50 (Table 2B) was no more than 5 nM.

Turning to `C[C@H]1C[C@@H](c2nc3cc(-c4ccc(-c5ccc(-c6cc7[nH]c([C@@H]8C[C@H](C)CN8C(=O)OC(C)(C)C)nc7s6)cc5)s4)ccc3[nH]2)N(C(=O)OC(C)(C)C)C1` [Compound 18], for the setting “Table 2A”, the EC50 is 5 to 5000 nM. `COC(=O)N[C@H](C(=O)N1C[C@@H](C)C[C@H]1c1ncc(-c2ccc(-c3cc4sc(-c5cc6[nH]c([C@@H]7C[C@H](C)CN7C(=O)[C@@H](NC(=O)OC)C(C)C)nc6s5)cc4s3)cc2)[nH]1)C(C)C` [Compound 26]: under “Table 2A”, the EC50 was no more than 5 nM. The same measure, in the same setting: next, `COC(=O)N(C)[C@H](C(=O)N1C[C@@H](C)C[C@H]1c1nc2sc(C#CC#Cc3cc4[nH]c([C@@H]5C[C@H](C)CN5C(=O)[C@H](C(C)C)N(C)C(=O)OC)nc4s3)cc2[nH]1)C(C)C` [Compound 5]: no more than 5 nM; `COC(=O)N[C@H](C(=O)N1C[C@@H](C)C[C@H]1c1nc2cc(C#Cc3ccc(-c4cc5[nH]c([C@@H]6C[C@H](C)CN6C(=O)[C@@H](NC(=O)OC)C(C)C)nc5s4)cc3)ccc2[nH]1)C(C)C` [Compound 14]: no more than 5 nM. For the molecule `COC(=O)N[C@H](C(=O)N1C[C@@H](C)C[C@H]1c1nc(Cl)c(-c2ccc(-c3ccc(-c4sc5[nH]c([C@@H]6C[C@H](C)CN6C(=O)[C@@H](NC(=O)OC)C(C)C)nc5c4Cl)cc3)cc2)[nH]1)C(C)C` [Compound 2a], the EC50 (Table 2B) was no more than 5 nM. In the case of `COC(=O)N[C@H](C(=O)N1CCC[C@H]1c1nc2sc(C#CC#Cc3cc4[nH]c([C@@H]5CCCN5C(=O)[C@@H](NC(=O)OC)C(C)C)nc4s3)cc2[nH]1)C(C)C` [Compound 2], the EC50 (Table 2A) was no more than 5 nM. In turn, `COC(=O)N[C@H](C(=O)N1C[C@@H](C)C[C@H]1c1ncc(-c2ccc(-c3ccc(-c4cc5[nH]c([C@@H]6C[C@H](C)CN6C(=O)[C@@H](NC(=O)OC)C(C)C)nc5s4)cc3)cc2)[nH]1)C(C)C` [Compound 11] yielded an EC50 (Table 2A) of no more than 5 nM. Take `COC(=O)N[C@H](C(=O)N1C[C@@H](C)C[C@H]1c1ncc(-c2ccc(-c3ccc(-c4cc5[nH]c([C@@H]6C[C@H](C)CN6C(=O)[C@@H](NC(=O)OC)C(C)C)nc5s4)cc3)c(C)c2)[nH]1)C(C)C` [Compound 12a]: under “Table 2B”, the EC50 is no more than 5 nM. The molecule `COC(=O)N[C@H](C(=O)N1C[C@@H](C)C[C@H]1c1cc2ccc(-c3ccc(-c4cc5[nH]c([C@@H]6C[C@H](C)CN6C(=O)[C@@H](NC(=O)OC)C(C)C)nc5s4)cc3)cc2[nH]1)C(C)C` [Compound 10] displayed an EC50 (Table 2A) of no more than 5 nM. On to `COC(=O)N[C@H](C(=O)N1C[C@@H](C)C[C@H]1c1nc2cc(-c3cc4sc(-c5cc6[nH]c([C@@H]7C[C@H](C)CN7C(=O)[C@@H](NC(=O)OC)C(C)C)nc6s5)cc4s3)ccc2[nH]1)C(C)C` [Compound 27], for which the EC50 (Table 2A) was no more than 5 nM. In turn, `COC(=O)N[C@H](C(=O)N1C[C@@H](C)C[C@H]1c1nc2sc(-c3ccc(-c4ccc5nc([C@@H]6CC[C@H](C)N6C(=O)[C@@H](NC(=O)OC)C(C)C)oc5c4)cc3)cc2[nH]1)C(C)C` [Compound 8] yielded an EC50 (Table 2A) of no more than 5 nM.
